SMILES strings stand for the structures.

Series [1] addresses T1, Muscarinic acetylcholine receptor M4 (Homo sapiens, UniProt P08173).
T1 sequence (P08173 whole entry): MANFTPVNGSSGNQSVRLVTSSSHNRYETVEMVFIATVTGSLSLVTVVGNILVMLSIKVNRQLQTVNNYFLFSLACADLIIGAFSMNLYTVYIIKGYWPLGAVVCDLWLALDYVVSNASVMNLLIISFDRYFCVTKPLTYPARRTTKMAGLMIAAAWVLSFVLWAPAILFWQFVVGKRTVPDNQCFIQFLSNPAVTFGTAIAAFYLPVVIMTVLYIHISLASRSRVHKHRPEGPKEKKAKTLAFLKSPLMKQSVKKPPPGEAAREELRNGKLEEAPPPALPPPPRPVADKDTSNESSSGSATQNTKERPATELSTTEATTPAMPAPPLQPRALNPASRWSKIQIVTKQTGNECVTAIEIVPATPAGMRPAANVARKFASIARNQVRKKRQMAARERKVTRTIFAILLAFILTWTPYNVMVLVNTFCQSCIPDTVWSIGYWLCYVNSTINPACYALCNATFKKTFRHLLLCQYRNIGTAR
It is filed as cell membranes, CHO-K1, Membrane. To be noted: cho-k1.

For series [2], the target named is T2, Neuropeptide Y receptor type 1 (Homo sapiens, UniProt P25929).
T2 sequence (P25929 whole entry): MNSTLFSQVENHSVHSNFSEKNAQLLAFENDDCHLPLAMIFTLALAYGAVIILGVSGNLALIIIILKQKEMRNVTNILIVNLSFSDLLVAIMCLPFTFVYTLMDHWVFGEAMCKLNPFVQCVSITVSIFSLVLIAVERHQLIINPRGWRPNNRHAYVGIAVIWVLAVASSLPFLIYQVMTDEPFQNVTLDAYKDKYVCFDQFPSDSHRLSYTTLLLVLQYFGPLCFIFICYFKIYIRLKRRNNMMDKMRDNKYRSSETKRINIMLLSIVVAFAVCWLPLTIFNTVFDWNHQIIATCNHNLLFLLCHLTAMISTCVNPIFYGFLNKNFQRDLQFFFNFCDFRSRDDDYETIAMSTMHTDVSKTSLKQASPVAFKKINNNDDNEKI
It is filed as cell membranes, Membrane. Particulars: sk-n-mc.

Series [3] addresses T3, Nitric oxide synthase, inducible (Mus musculus, UniProt P29477).
T3 sequence (P29477 whole entry): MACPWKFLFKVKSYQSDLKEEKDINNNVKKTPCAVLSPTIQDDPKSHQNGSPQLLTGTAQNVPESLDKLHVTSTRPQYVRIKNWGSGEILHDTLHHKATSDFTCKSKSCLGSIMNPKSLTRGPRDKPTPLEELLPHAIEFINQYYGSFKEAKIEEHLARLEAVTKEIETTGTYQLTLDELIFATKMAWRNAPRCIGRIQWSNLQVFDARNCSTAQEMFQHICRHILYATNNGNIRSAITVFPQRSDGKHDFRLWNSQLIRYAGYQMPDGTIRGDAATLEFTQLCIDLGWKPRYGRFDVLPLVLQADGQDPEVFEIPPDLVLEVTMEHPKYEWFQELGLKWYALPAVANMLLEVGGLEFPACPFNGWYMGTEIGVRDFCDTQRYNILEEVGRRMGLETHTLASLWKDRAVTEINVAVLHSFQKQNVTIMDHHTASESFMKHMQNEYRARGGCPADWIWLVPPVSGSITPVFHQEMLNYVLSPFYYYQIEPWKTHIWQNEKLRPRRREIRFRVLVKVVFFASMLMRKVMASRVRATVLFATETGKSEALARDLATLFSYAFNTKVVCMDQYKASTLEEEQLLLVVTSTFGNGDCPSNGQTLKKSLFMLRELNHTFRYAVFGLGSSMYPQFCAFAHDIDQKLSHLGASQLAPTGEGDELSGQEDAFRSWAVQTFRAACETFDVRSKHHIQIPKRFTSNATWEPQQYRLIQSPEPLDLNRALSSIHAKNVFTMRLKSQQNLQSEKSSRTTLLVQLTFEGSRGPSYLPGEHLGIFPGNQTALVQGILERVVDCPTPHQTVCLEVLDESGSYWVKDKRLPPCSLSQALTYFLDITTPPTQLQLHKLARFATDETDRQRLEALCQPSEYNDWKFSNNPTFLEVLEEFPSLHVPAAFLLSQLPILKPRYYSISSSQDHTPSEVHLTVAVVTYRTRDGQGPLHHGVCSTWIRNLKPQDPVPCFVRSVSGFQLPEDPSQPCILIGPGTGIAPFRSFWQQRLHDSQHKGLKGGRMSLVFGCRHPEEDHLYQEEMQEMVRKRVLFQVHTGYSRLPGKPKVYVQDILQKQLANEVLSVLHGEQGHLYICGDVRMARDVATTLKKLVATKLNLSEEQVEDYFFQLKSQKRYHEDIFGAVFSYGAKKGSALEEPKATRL
Set-up: species or system Escherichia coli.

Series [4] addresses Delta-type opioid receptor (Homo sapiens, UniProt P41143). It is filed as cell membranes, HEK293, Membrane. To be noted: hek293.
The target in the next series is T4, Adenosine receptor A3 (Homo sapiens, UniProt P0DMS8).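 Also: radioligand binding assay with AB-MECA serving as the labeled ligand.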
T4 sequence (P0DMS8 whole entry): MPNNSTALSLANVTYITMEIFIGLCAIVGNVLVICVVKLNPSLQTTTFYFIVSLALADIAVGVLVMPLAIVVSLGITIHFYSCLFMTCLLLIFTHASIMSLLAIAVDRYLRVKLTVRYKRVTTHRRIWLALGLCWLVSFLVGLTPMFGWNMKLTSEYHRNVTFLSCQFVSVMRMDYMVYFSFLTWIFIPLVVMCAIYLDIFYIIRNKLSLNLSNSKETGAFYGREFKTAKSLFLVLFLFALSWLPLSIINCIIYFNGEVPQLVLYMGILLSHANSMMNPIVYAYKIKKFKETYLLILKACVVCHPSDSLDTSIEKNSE
It counts as cell membranes, CHO-K1, Membrane.

In another series the target is Cytochrome P450 3A4 (Homo sapiens, UniProt P08684). To be noted: bti-tn-5b1-4.
In another series the target is Estrogen receptor beta (Homo sapiens, UniProt Q92731). Particulars: sf9.
Also: in other assays of this panel Not Active means under 50% inhibition at 10 µM.

Sequence of Cytochrome P450 3A4 (P08684 whole entry): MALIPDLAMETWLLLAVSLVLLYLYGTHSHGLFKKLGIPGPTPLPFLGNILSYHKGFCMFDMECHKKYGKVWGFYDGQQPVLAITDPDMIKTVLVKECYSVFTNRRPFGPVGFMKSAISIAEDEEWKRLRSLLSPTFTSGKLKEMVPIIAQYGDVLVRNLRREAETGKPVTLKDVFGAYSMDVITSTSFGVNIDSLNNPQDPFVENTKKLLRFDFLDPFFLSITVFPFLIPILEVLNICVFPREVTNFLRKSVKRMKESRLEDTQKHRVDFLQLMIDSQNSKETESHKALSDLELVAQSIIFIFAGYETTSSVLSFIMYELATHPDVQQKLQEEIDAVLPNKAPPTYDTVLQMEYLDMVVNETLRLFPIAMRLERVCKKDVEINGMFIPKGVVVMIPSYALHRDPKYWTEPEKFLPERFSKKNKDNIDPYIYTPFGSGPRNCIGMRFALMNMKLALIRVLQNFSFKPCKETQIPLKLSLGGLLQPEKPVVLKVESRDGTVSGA
Sequence of Delta-type opioid receptor (P41143 whole entry): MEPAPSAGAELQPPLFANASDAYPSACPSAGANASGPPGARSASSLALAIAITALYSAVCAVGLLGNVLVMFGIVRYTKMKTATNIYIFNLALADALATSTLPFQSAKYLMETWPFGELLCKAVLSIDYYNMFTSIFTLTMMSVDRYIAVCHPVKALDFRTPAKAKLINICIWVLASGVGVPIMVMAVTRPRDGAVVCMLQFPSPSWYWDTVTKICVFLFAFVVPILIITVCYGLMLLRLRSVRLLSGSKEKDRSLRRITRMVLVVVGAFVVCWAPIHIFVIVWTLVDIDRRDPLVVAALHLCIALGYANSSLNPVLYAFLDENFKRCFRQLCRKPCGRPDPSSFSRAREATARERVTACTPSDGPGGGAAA
Sequence of Estrogen receptor beta (Q92731 whole entry): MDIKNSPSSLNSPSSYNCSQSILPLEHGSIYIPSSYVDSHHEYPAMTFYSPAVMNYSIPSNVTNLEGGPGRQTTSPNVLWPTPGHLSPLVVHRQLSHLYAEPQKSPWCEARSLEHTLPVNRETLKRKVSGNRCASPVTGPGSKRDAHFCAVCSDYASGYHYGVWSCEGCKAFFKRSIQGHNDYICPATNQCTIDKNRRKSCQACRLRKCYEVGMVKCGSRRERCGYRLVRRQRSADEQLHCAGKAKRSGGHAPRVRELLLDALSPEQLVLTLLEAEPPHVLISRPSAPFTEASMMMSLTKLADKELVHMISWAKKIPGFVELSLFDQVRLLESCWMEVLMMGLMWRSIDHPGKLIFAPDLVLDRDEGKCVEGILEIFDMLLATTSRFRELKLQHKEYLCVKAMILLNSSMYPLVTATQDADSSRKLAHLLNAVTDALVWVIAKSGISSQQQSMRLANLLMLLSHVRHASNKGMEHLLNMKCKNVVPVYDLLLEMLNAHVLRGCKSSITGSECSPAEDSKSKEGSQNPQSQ

For the molecule `O=c1ccc2ccccc2o1` [COUMARIN], the IC50 entry (in series [1]; in series [2]; in series [3]; in series [4]; on Adenosine receptor A3 (cho-k1); at Cytochrome P450 3A4) was “Not Active” each time. Also, the IC50 entry at Estrogen receptor beta is reported as “Not Active”. For the same molecule, the inhibition constant Ki result on Cytochrome P450 3A4 is given as “Not Active”.
With `CN(C)/N=N/c1[nH]cnc1C(N)=O` [DACARBAZINE], the IC50 result (in series [1]; in series [2]; in series [3]; in series [4]; against Adenosine receptor A3 (cho-k1); against Cytochrome P450 3A4) was “Not Active” throughout. On Estrogen receptor beta, the half-maximal inhibitory concentration (IC50) result was “Not Active”. The Ki result at Cytochrome P450 3A4 is recorded as “Not Active”.
Regarding `COc1ccc2c(c1)[C@]13CCCC[C@@H]1[C@H](C2)N(C)CC3` [DEXTROMETHORPHAN], the IC50 entry (in series [1]; in series [2]; in series [3]; in series [4]; against Adenosine receptor A3 (cho-k1); against Cytochrome P450 3A4) was “Not Active” each time. Moreover, the IC50 entry at Estrogen receptor beta was “Not Active”. In addition, the Ki result on Cytochrome P450 3A4 was “Not Active”.
`COP(=O)(OC)OC=C(Cl)Cl` [DICHLORVOS]: the IC50 entry (in series [1]; in series [2]; in series [3]; in series [4]; against Adenosine receptor A3 (cho-k1); at Cytochrome P450 3A4) was “Not Active” in each case. Besides, on Estrogen receptor beta, the IC50 result is reported as “Not Active”. Moreover, the inhibition constant Ki entry on Cytochrome P450 3A4 was “Not Active”.
In the case of `O=C(O)Cc1ccccc1Nc1c(Cl)cccc1Cl` [DICLOFENAC], the IC50 result (in series [1]; in series [2]; in series [3]; in series [4]; at Adenosine receptor A3 (cho-k1); on Cytochrome P450 3A4) was “Not Active” each time. Moreover, the IC50 result against Estrogen receptor beta is “Not Active”. Besides, on Cytochrome P450 3A4, the Ki entry is on record as “Not Active”.
`C[C@H]1O[C@@H](O[C@H]2[C@@H](O)C[C@H](O[C@H]3[C@@H](O)C[C@H](O[C@H]4CC[C@@]5(C)[C@H](CC[C@@H]6[C@@H]5CC[C@]5(C)[C@@H](C7=CC(=O)OC7)CC[C@]65O)C4)O[C@@H]3C)O[C@@H]2C)C[C@H](O)[C@@H]1O` [DIGITOXIN]: the IC50 entry (in series [1]; in series [2]; in series [3]; in series [4]; on Adenosine receptor A3 (cho-k1); against Cytochrome P450 3A4) was “Not Active” throughout. Besides, on Estrogen receptor beta, the IC50 entry is recorded as “Not Active”. In addition, at Cytochrome P450 3A4, the Ki result is listed as “Not Active”.
With `CCN1CC(CCN2CCOCC2)C(c2ccccc2)(c2ccccc2)C1=O` (stereo not drawn) [DOXAPRAM], the IC50 result (in series [1]; in series [2]; in series [3]; in series [4]; at Adenosine receptor A3 (cho-k1); on Cytochrome P450 3A4) was “Not Active” throughout. Also, the IC50 result at Estrogen receptor beta is on record as “Not Active”. Besides, on Cytochrome P450 3A4, the Ki result was “Not Active”.
Regarding `Cn1c(=O)c2c(ncn2CC2OCCO2)n(C)c1=O` [DOXOFYLLINE], the 50% inhibitory concentration (IC50) entry (in series [1]; in series [2]; in series [3]; in series [4]; at Adenosine receptor A3 (cho-k1); against Cytochrome P450 3A4) was “Not Active” throughout. For the same molecule, the IC50 entry on Estrogen receptor beta is “Not Active”. In addition, on Cytochrome P450 3A4, the Ki entry was “Not Active”.
With `COc1cccc2c1C(=O)c1c(O)c3c(c(O)c1C2=O)C[C@@](O)(C(=O)CO)C[C@@H]3O[C@H]1C[C@H](N)[C@H](O)[C@H](C)O1` [DOXORUBICIN], the half-inhibitory concentration (IC50) entry (in series [1]; in series [2]; in series [3]; in series [4]; on Adenosine receptor A3 (cho-k1); against Cytochrome P450 3A4) was “Not Active” in each case. Also, the IC50 entry at Estrogen receptor beta was “Not Active”. In addition, the Ki entry on Cytochrome P450 3A4 was “Not Active”.
On to `COc1cccc2c1C(=O)c1c(O)c3c(c(O)c1C2=O)C[C@@](O)(C(=O)CO)C[C@@H]3O[C@H]1C[C@H](N)[C@@H](O)[C@H](C)O1` [EPIRUBICIN], for which the IC50 result (in series [1]; in series [2]; in series [3]; in series [4]; on Adenosine receptor A3 (cho-k1); against Cytochrome P450 3A4) was “Not Active” in each case. Also, the IC50 entry against Estrogen receptor beta is given as “Not Active”. For the same molecule, the Ki entry at Cytochrome P450 3A4 is given as “Not Active”.
`C[C@]12CC[C@@H]3c4ccc(OC(=O)c5ccccc5)cc4CC[C@H]3[C@@H]1CC[C@@H]2O` [ESTRADIOL BENZOATE]: the IC50 result in series [1] is “Not Active”; in series [2] it was “Not Active”; in series [3] it was “Not Active”; in series [4], “Not Active”; at Adenosine receptor A3 (read-out: IC50) it was 21.8 µM; against Cytochrome P450 3A4, “Not Active”. For the same molecule, at Estrogen receptor beta, the IC50 result is on record as “Not Active”. For the same molecule, the Ki at Adenosine receptor A3 (read-out: Ki) is 12.3 µM; at Cytochrome P450 3A4 it was “Not Active”.
`CC[C@@H](CO)NCCN[C@@H](CC)CO` [ETHAMBUTOL]: the IC50 result (in series [1]; in series [2]; in series [3]; in series [4]; at Adenosine receptor A3 (cho-k1); on Cytochrome P450 3A4) was “Not Active” throughout. Also, the IC50 entry at Estrogen receptor beta is “Not Active”. In addition, at Cytochrome P450 3A4, the Ki result was “Not Active”.
Consider `CC1(C)O[C@@H]2C[C@H]3[C@@H]4C[C@H](F)C5=CC(=O)C=C[C@]5(C)[C@H]4[C@@H](O)C[C@]3(C)[C@]2(C(=O)CO)O1` [FLUNISOLIDE], for which the IC50 result (in series [1]; in series [2]; in series [3]; in series [4]; at Adenosine receptor A3 (cho-k1); against Cytochrome P450 3A4) was “Not Active” in each case. The IC50 entry at Estrogen receptor beta is “Not Active”. The Ki result at Cytochrome P450 3A4 is recorded as “Not Active”.
As to `CC1(C)O[C@@H]2C[C@H]3[C@@H]4C[C@H](F)C5=CC(=O)CC[C@]5(C)[C@H]4[C@@H](O)C[C@]3(C)[C@]2(C(=O)CO)O1` [FLURANDRENOLIDE], the IC50 result (in series [1]; in series [2]; in series [3]; in series [4]; at Adenosine receptor A3 (cho-k1); against Cytochrome P450 3A4) was “Not Active” each time. Also, on Estrogen receptor beta, the IC50 result is recorded as “Not Active”. Besides, at Cytochrome P450 3A4, the Ki entry is on record as “Not Active”.

The values above are taken from ChEMBL document CHEMBL1909046, “DrugMatrix in vitro pharmacology data”.
